# Results: patent US11000568B2, “Means and methods for treating copper-related diseases” (HELMHOLTZ ZENTRUM MÜNCHEN—DEUTSCHES FORSCHUNGSZENTRUM FÜR …, priority 2015, dated 2021)
# Entries after “also recorded” stand apart in the source; their conditions may differ. Numbered stars: 1 amine (or outer) side, 2 acyl side, 3 side chain; on linkers, the order of the positions; unused ones are H or OH. Bridge positions count the residues as written; N and C are the ends. Square brackets hold non-standard residues; d marks the D form. Peptide text beside a SMILES is read from it. * marks the point of attachment. X2 = O=C1OC(C2CCCN2[*:1])=NC1C(=S)NC(CO)C(=O)[*:2]; X1 = CC(C)CC(=O)C1=NC(C(=S)NCC(=O)*)C(=O)O1
# Tests used:
# [1] = tested on: HepG2 cells; experiment: Mitochondrial membrane potential staining of HepG2 cells; assay type: cell-based; conditions: 500 μM MB
# Method: For immunofluorescence staining, 2×10^4 cells were incubated with either medium alone, 500 μM MB or 250 μM CCCP in black 96-well plates with clear glass bottom. Staining was done by 1.6 μM Hoechst 33342 (ex 360-400 nm, em 410-480 nm), 300 nM MitoTracker® red (ex 620-640 nm, em 650-760 nm), and 1 μM nonyl acridine orange (NAO, ex 460-490 nm, em 500-550 nm) for 40 minutes at 37° C. After a washing step, fluorescence was analyzed.
# [2] = tested on: LPP−/− rats; experiment: Repetitive MB treatment cycles in LPP−/− rats; assay type: in vivo, rat
# Text: Due to the efficiency of the short-term MB treatment, we did a first test aiming at replacing daily chelation therapy by a regimen consisting of repetitive treatment cycles interrupted by longer observation cycles (FIG. 14). Five LPP−/− rats as well as five age- and sex-matched LPP+/− controls were included. One pair of rats was sacrificed at experimental days 1, 8, 29, 36 and 85, respectively. […] The four remaining LPP−/− rats were subjected to the first treatment cycle consisting of three daily MB injections (i.p.) for five days. […] Upon the second treatment cycle copper loads decreased again, but now down to 25% of the starting values, resulting in an unprecedented low copper load in LPP−/− mitochondria (day 36, pair 4). […] At experimental day 85, liver and mitochondrial copper loads had risen back to values before beginning of the treatment (day 1), associated with an impaired mitochondrial function (65% ATP production capacity) in comparison to its LPP+/− control (pair 5).
# [3] = tested on: HepG2 cells; experiment: Cellular de-coppering of HepG2 cells (ICP-OES); assay type: cell-based
# Method: (§1) HepG2 cells were kept in MEM with 2% FCS. […] Therefore, Zn-MB, generated by preparing a 20 mM MB solution and adding an equimolar concentration of Zn solution under pH control, was used in cell culture experiments.
# To determine the cellular de-coppering efficiency of MB, cells were pretreated with 2% FCS containing medium or 15 μM copper-histidine for 24 h and subsequently subjected to a 24 h treatment with 500 μM MB. Thereafter, cells were washed two times and counted. Copper in 2.5×10^6 cells was determined by ICP-OES after wet ashing of samples with 65% nitric acid.
# Copper in liver homogenates, cell lysates and mitochondrial preparations were analyzed by ICP-OES (Ciros Vision, SPECTRO Analytical Instruments GmbH) after wet ashing of samples with 65% nitric acid (Zischka et al., log. cit.).
# [4] = Stability analysis of MB by absorbance of oxazolone rings; assay type: physicochemical; conditions: time and/or temperature
# Method: (C) Stability analysis of metal free MB and Zn-loaded MB followed by absorbance measurements of their two metastable oxazolone rings (OxaA/ZnA at 394 nm and OxaB/ZnB at 340 nm)^57 at 37° C.
# as §1
# [5] = tested on: HepG2 cells; experiment: Cellular MB uptake by competitive ELISA; assay type: in vitro ADME; conditions: 2 and 24 hours
# Method: Cellular MB uptake was determined from cell lysates incubated for 2 or 24 h with MB at different concentrations by a competitive ELISA using a monoclonal anti-MB antibody.
# Competitive ELISA. All 86 TCS were diluted 1:10 with buffer (PBS, 5% FCS, 0.01% sodium acide). 50 μl of each TCS were pre-incubated with 50 μl MB solution (1000 ng/ml in buffer) or buffer overnight. The experiments were run in duplicates. 50 μl of the pre-incubated sample were added to ELISA plates coated with MB as used for screening. After 10 min, the plates were washed, bound antibodies against MB were detected with HRP conjugated mAbs against the rat IgG isotypes and HRP was visualized with TMB. MAbs that recognized free MB (no signal when pre-incubated with MB, positive signal in the buffer control) were further analyzed in a serial dilution of MB (1000 ng/ml to 2 ng/ml). The four mAbs that best recognized free MB were established (10610, 12D9, 18H7, 21G5, all of rat IgG2a subclass). To increase the sensitivity of the test system, the TCS of the established hybridomas were titrated on ELISA plates coated with MB. The titer of […] was far better (1:1260) than of 12D9 (1:320), 18H7 (1:10) and 21G5 (1:320).
# For the test system 10610 was used at a dilution of 1:500 and the pre-incubation time reduced to one hour.
# [6] = biological target: mitochondrial respiratory complex IV (Rattus norvegicus, UniProt P00406+P05503)
# [7] = tested on: WD patient-derived hepatocyte like (HLC) cells; experiment: De-coppering of WD patient-derived hepatocyte like cells (HLC); assay type: cell-based, human; conditions: Cu-histidin 15 μM 24 h, then MB 300 μM 24 h
# Method: Urinary epithelial cells were pelleted at 400×g for 10 min from freshly donated mid-stream urine (Zhou et al., J Am Soc Nephrol 22, 1221-1228 (2011)). Cells were cultured in urinary cell medium (UCM) consisting of Dulbecco's modified Eagle medium/Ham's F-12 culture medium (DMEM/F12, Lonza) supplemented with 10% fetal bovine serum (FBS, PAA), 0.1 mM non-essential amino acids (NEAA, Sigma), 0.1 mM β-mercaptoethanol, 1 mM GlutaMAX (Life Technologies), and SingleQuot Kit CC-4127 REGM (Lonza). Urinary epithelial cells were reprogrammed by nucleofection of episomal expression vectors pCXLE-hOCT3/4-shp53-F, pCXLE-hSK, and pCXLE-hUL (Addgene) using the Amaxa Basic Nucleofector Kit (Lonza, VPI-1005). iPS cells (iPSCs) were maintained on Matrigel-coated plates in mTeSR cell culture medium and dissociated with 1 U/ml dispase (Stem Cell Technologies) into small clusters and subcultured every 5 to 7 days. WD iPSCs were differentiated into hepatocyte-like cells (HLCs) by a modification of the method reported previously (Basma et al., Gastroenterology 136, 990-999 (2009)). […] iPSCs were plated in single cells onto 6-well plates precoated with Matrigel. […]
# HLCs were incubated at day 14 with Cu-histidin (15 μM) for 24 h in a 6 well plate. […] After 24 h incubation, washed cells were collected, counted and their copper content assessed.
# [8] = day 36, after second treatment cycle
# Chain of mitochondrial respiratory complex IV (P00406 whole entry, other chains not shown): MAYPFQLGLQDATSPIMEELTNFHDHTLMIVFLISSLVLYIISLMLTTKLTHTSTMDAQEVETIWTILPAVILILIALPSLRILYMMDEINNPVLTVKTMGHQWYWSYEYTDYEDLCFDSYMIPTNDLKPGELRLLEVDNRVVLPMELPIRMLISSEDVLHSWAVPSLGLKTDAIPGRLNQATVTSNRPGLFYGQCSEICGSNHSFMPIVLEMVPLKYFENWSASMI
compound,measurement,setting,value
CSCCC(NC(=O)C1CSSCC(NC(=O)C(CO)NC(=O)CNC(=S)C2N=C(C(=O)CC(C)C)OC2=O)C(=O)NC(Cc2ccc(O)cc2)C(=O)N2CCCC2C2=NC(C(=O)O2)C(=S)NC(CO)C(=O)N1)C(=O)O (stereo not drawn) [MB] (X1-SCY[X2]CM-OH; disulfide 2-5; configuration not given here),mitochondrial membrane potential,[1],reduced the mitochondrial membrane potential only partially; also recorded: only intermediate phases of mitochondrial membrane potential loss
same,copper loads relative to starting values,[2]; [8],25%
same,decoppering efficiency,[2]; [8],75%
same,ATP production capacity vs LPP+/− control,[2]; experimental day 85,65%
same,reduction in copper load,"[2]; experimental day eight, after first cycle (three daily MB i.p. for five days)",40%
same,health status during observation period,[2]; further seven weeks after second cycle,stayed healthy
same,mitochondrial and liver copper load,[2]; recurrent treatment cycles,marked reduction in mitochondrial and liver copper load
same,time/age to disease onset vs untreated LPP−/− rats,[2]; recurrent treatment cycles,doubling of the age; also recorded: doubling of time before disease onset
same,de-coppering of copper preloaded HepG2 cells,[3]; 24 h MB treated vs untreated control,highly efficiently de-coppered
same,reduction of copper in HepG2 cells,"[3]; basic copper load, 24 h 500 μM MB (Zn-MB used in cell culture)",50%
same,reduction of copper in HepG2 cells,"[3]; preloaded with 15 μM copper-histidine 24 h, then 24 h 500 μM MB",50%
same,decay,[4],susceptible to time- and/or temperature-dependent decay
same,intracellular MB uptake,[5],taken up in a dose dependent manner
same,toxicity to copper-dependent respiratory complex IV activity,[6],significantly less toxic than TTM
same,de-coppering of copper preloaded HLC,[7],Comparable copper depletions; also recorded: highly efficiently de-coppered
